Measured values from patent US5162571A, “Phenol derivatives, their production and use” (Takeda Chemical Industries, Ltd., priority 1987, dated 1992).
Values belong to the molecule of their own block, whether it stands above or below them.

Assays:
[1] = tested on: lipid peroxides production in rat brain homogenates; test: Inhibitory action on lipid peroxides production in rat brain homogenates; assay type: biochemical; settings: 10^-5 M
Method: Inhibitory action on lipid peroxides production in rat brain homogenates
Method: The male SD rat brain tissue was used as 5% homogenate in phosphate-buffered solution. After incubation of the homogenate for 1 hour at 37° C., the amount of lipid peroxides produced was determined by the thiobarbituric acid method according to the description of Ohkawa et al. (Analytical Biochemistry, 95: 551, 1979)
Test compounds were used as a solution of dimethylsulfoxide. The inhibitory action on lipid peroxide production was expressed as a % inhibition as compared with the amount of production in the vehicle group.

[2] = target: T1, specific [^3 H] U-46619 binding to guinea pig platelet membrane (Cavia porcellus, UniProt A0A286Y4I8); test: Inhibition of specific [^3 H] U-46619 binding to guinea pig platelet membrane; settings: [^3 H] U-46619, 25° C., 30 min; read-out: IC50 (Concentration for 50% inhibition)
T1 construct: Platelet membranes were prepared according to the following procedure; from tissue; host or cells: guinea pig platelet membranes
T1 sequence (A0A286Y4I8 1-347): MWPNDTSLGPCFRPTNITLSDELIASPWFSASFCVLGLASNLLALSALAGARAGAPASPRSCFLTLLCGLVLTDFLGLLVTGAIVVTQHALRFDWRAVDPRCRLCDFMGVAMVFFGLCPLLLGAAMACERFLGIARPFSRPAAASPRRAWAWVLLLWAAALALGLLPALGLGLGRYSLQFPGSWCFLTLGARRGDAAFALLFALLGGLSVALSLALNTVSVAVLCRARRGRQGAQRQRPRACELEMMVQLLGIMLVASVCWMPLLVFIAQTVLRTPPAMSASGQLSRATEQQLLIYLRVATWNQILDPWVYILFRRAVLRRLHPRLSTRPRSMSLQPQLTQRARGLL
Method: Inhibition of specific [^3 H] U-46619 binding to guinea pig platelet membrane
Method: Blood from normal guinea pig was collected into 0.315% citrate solution containing aspirin (final concentration 1 mM) and was centrifuged at 3000 r.p.m. for […]. The PRP (platelet rich plasma) was centrifuged at 4800 r.p.m for 10 min. at 4° C. Platelet membranes were prepared according to the following procedure: In order to remove the residual plasma protein, the platelet pellet was washed once with 30 ml of buffer containing 25 mM Tris-HCl/5 mM MgCl2 (pH 7.4) and recentrifuged to pellet the platelets. The platelets were then resuspended in 20 ml of the same buffer, and the cells were disrupted by sonication. The sonication was performed on ice using a Kontes Sonicator (Vineland, N.J.). The platelets were sonicated for a total of 90 sec. with a 15 sec. burst followed by a 15 sec. intermission. The sonicated mixture was centrifuged at 100,000×g for 1 hour and the membrane fraction was suspended in the same buffer. The protein concentration was adjusted to 1 mg/ml.
The binding assay was performed at 25° C. for 30 min. One ml of the resuspended membrane fraction was incubated with […] of [^3 H] U-46619. The incubation mixture was filtered through a glass fiber membrane (GF/C, whatman) to separate the membrane bound from free [^3 H] U-46619. The membranes were quickly washed twice with 5 ml of cold buffer, mixed with 4 ml of ACS scintillation fluid and counted for [^3 H] U-46619.

[3] = tested on: U-46619 (TXA2 mimic)-induced broncho-constriction; test: Inhibitory effect on U-46619 (TXA2 mimic)-induced broncho-constriction in guinea pig; assay type: in vivo; settings: Cavia porcellus, ** p < 0.01; for inhibition in vivo at 5 mg/kg: 5 mg/kg p.o.
Method: Inhibitory effect on U-46619 (TXA2 mimic)-induced broncho-constrictionin guinea pig
Method: Eight male Hartley guinea pigs were used per one group. The guinea pig anesthetized with urethane (1.5 g/kg, i.p.) was fixed in a dorsal position, subjected to tracheotomy and connected to a respirator through a cannula. A side branch of the tracheal cannula was connected to a respirator (Harvard apparatus rodent respirator Type 680) at the rate of 70 strokes/min. and a constant volume of 3 to 5 ml.
Inflation pressure was kept constant at 10 cm H2 O.
After treatment with gallamine triethiodide (1 mg/kg, i.v.), U-46619 (10 μg/Kg) dissolved in a physiological saline solution was given through a carotid cannula and the airway resistance was measured by the overflow technique of Konzett-Rossler method (Konzett, H. and Rossler, R., Naunyn-Schmiedegerg's Arch, Exp. Path. Pharmak., 195, 71-74 (1940). A test compound was suspended in 5% gum arabic solution and was administered orally 1 hour before the treatment with U-46619.
Alternatively, a test compound was dissolved in aqueous 50% dimethylsulfoxide solution and administered interveneously in the dosage of 0.1 ml/100 g body weight 9 minutes before the treatment of U-46619.

[4] = target: T2, Thromboxane A2 (TXA2) receptor (Oryctolagus cuniculus, UniProt Q6WQI8); test: Thromboxane A2 (TXA2) receptor antagonism: inhibitory effect on contraction of rabbit aorta by TXA2-mimics; assay type: cell-based; settings: for inhibition at 10 µM: 10^-5 M; for inhibition at 1 µM: 10^-6 M; for inhibition at 0.1 µM: 10^-7 M
T2 construct: contraction by TXA2 mimics U-44069 or U-46619
T2 sequence (Q6WQI8 1-233): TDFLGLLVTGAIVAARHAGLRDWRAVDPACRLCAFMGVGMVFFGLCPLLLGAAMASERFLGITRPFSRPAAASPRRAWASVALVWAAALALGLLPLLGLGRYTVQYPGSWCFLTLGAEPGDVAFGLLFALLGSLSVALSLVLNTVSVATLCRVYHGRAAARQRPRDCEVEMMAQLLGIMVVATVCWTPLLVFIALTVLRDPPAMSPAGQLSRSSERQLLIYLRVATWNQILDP
Method: Thromboxane A2 (TXA2) receptor antagonism
Inhibitory effect on contraction of rabbit aorta by thromboxan A2 (TXA2)-mimics
Method: A spiral strip of the rabbit aorta (2-3 mm wide, about 3 cm long) was suspended in Krebs-Henseleit solution under the load of 2 g. The Krebs-Henseleit solution was saturated with a mixed gas of 95%O2 -5%CO2 and warmed at 37° C. Inhibition of the contraction of the vascular strip caused by a TXA2 mimic substance U-44069^1) (10^-7 M) or U-46619^2) (3×10 ^-8 M), by pretreatment with Compound No. 13 30 minutes before was studied.
1) U-44069: (5Z, 9α, 11α, 13E, 15S)-15-hydroxy-9,11-(epoxymethano)-prosta-5,13-dienoic acid (manufacturedby The Upjohn Company in U.S.A.)
2) U-46619: (5Z, 9α, 11α, […], 15S)-15-hydroxy-11,9-(epoxymethano)-prosta-5,13-dienoic acid (manufacturedby Cayman Chemical Company)
In Table 5, "*" represents addition of U-46619.

5-Lipoxygenase = target: T3, 5-Lipoxygenase (Rattus norvegicus, UniProt P12527); test: 5-Lipoxygenase inhibitory activity (5-HETE production in RBL-1 cells); assay type: cell-based; settings: read-out: Inhibitory effect on 5-HETE production (%); for inhibition at 10 µM: 10^-5 M; for inhibition at 1 µM: 10^-6 M; for inhibition at 0.1 µM: 10^-7 M
T3 construct: RBL-1 cells (rat basophilic leukemia cells); endogenous in cells; host or cells: RBL-1 (rat basophilic leukemia cells)
T3 sequence (P12527 1-673): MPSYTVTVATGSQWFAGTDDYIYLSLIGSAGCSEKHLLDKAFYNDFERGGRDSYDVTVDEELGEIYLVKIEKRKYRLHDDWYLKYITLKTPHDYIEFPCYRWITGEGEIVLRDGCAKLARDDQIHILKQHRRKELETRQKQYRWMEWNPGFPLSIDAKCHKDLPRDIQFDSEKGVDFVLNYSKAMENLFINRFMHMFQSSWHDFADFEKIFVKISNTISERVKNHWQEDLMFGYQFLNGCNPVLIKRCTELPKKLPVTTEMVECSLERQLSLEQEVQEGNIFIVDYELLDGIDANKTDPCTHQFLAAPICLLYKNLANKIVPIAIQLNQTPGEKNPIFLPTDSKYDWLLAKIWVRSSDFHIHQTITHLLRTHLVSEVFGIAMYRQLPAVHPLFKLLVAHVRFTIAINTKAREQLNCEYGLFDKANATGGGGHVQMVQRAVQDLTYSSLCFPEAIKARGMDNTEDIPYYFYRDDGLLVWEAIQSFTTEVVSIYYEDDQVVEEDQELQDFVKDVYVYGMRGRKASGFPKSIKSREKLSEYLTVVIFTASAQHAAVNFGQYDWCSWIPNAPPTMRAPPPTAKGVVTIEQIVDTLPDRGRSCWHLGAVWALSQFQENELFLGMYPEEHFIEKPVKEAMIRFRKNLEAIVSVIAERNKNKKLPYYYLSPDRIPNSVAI
Method: 5-Lipoxygenase inhibitory activity
Method: 10^7 RBL-1 cells (rat basophilic leukemia cells) were suspended in 0.5 ml of MCM (mast cell medium), and test solutions (made up of 0.5 ml of MCM, 50 μg of arachidonic acid, 10 μg of A-23187 (calcium ionophore) and 1 μM, 0.01 μM and 0.001 μM as the final concentration of the phenol compound, respectively) prepared previously were added respectively to the suspension, followed by reaction at 37° C. for 20 minutes. After the conclusion of the reaction, 4 ml of ethanol and 1,4-dimethoxy-2-methyl-3-(3-methoxypropyl)naphthalene as the internal reference drug were added to the reaction solution, and the mixture was shaken thoroughly and allowed to stand at room temperature for 10 minutes. Then, it was centrifuged (2000 r.p.m.) for 10 minutes, and the supernatant fluid was separated and concentrated to dryness under reduced pressure. 0.5 ml of 60% aqueous methanol was added to the concentrate, and 100 μl of the resulting solution was taken and subjected to high-performance liquid chromatography to determine the amount of 5-HETE (5-hydroxy-eicosatetraenoic acid). Determination of 5-HETE was made through measurement of an absorption at 237 nm with a UV absorption monitor.
The 5-HETE production inhibitory effect (IE) was expressed by [formula] wherein a is a peak height or peak area corrected by the peak for the internal reference when the phenol compound is not contained; b is a peak height or peak area corrected by the peak for the internal reference when the phenol compound is contained.

[5] = U-44069 (10^-7 M)-induced contraction
[6] = iv, 1.25 mg/kg i.v., 9 minutes before U-46619
[7] = po, 0.31 mg/kg p.o., 1 hour before U-46619
[8] = addition of U-46619 (3×10^-8 M) (*)

SMILES: Cc1cc(C)c(O)c(C(CCCCCCO)c2ccccc2)c1C (stereo not drawn) [Compound 5, 7-(2-hydroxy-3,5,6-trimethylphenyl)-7-phenylheptanol]
- Inhibition (%) [1]: 100%

SMILES: CCCCCCC(c1ccc(F)cc1)c1c(C)c(C)cc(C)c1O (stereo not drawn) [Compound 6]
- Inhibition (%) [1]: 100%

SMILES: Cc1c(C)c(Cc2ccc(F)cc2)c(C)c(C(CCCCCC(=O)O)c2ccc(F)cc2)c1O (stereo not drawn) [Compound 20]
- Inhibition (%) [1]: 74.5%

SMILES: Cc1c(C)c(CO)c(C)c(C(CCCCCC(=O)O)c2ccc(F)cc2)c1O (stereo not drawn) [Compound 32, 7-(4-fluorophenyl)-7-(6-hydroxy-3-hydroxymethyl-2,4,5-trimethylphenyl)heptanoic acid]
- IC50 [2]: 32 nM
- inhibition in vivo at 0.31 mg/kg [3, 7]: 57%
- inhibition at 1 µM [4, 8]: 100%
- inhibition at 0.1 µM [4, 8]: 95%

SMILES: CC(=O)c1c(C)c(C)c(O)c(C(CCCCCC(=O)O)c2ccc(F)cc2)c1C (stereo not drawn) [Compound 35, 7-(3-acetyl-6-hydroxy-2,4,5-trimethylphenyl)-7-(4-fluorophenyl)heptanoic acid]
- IC50 [2]: 80 nM
- inhibition in vivo at 5 mg/kg ([3]; po, 1 hour before U-46619): 76%
- inhibition at 1 µM [4, 8]: 98%
- inhibition at 0.1 µM [4, 8]: 23%

SMILES: Cc1c(C)c2c(c(C(CCCCCC(=O)O)c3ccc(F)cc3)c1O)CCC2=O (stereo not drawn) [Compound 37, 7-(6,7-dimethyl-5-hydroxy-1-oxoindan-4-yl)-7-(4-fluorophenyl)heptanoic acid]
- IC50 [2]: 13 nM
- inhibition in vivo at 1.25 mg/kg ([3]; po, 1.25 mg/kg p.o., 1 hour before U-46619): 59%
- inhibition at 0.1 µM [4, 8]: 100%

SMILES: C=CCON=Cc1c(C)c(C)c(O)c(C(CCCCCC(=O)O)c2ccc(F)cc2)c1C (stereo not drawn) [Compound 52]
- IC50 [2]: 14 nM
- inhibition in vivo at 0.31 mg/kg [3, 7]: 36%
- inhibition at 0.1 µM [4, 8]: 96%

SMILES: CC(C)(C)c1cc(O)c(O)c(C(CCCCCC(=O)O)c2ccccc2)c1 (stereo not drawn) [Compound 56]
- inhibition at 10 µM (5-Lipoxygenase): 93%
- inhibition at 1 µM (5-Lipoxygenase): 93%
- inhibition at 0.1 µM (5-Lipoxygenase): 66%
- Inhibition (%) [1]: 100%

More lines, main results first:

- IC50 [2]: 130 nM
- inhibition at 10 µM [4, 5]: 100%
- inhibition at 1 µM [4, 5]: 27%
SMILES: Cc1c(C)c(C)c(C(CCCCCC(=O)O)c2ccc(F)cc2)c(O)c1C (stereo not drawn) [Compound 9]
- inhibition in vivo at 0.31 mg/kg ([3]; iv, 0.31 mg/kg i.v., 9 minutes before U-46619): 65%
- Inhibition (%) [1]: 100%

- IC50 [2]: 840 nM
- inhibition at 1 µM [4, 5]: 98%
- inhibition at 0.1 µM [4, 5]: 12%
SMILES: Cc1c(C)c(Cl)c(C)c(C(CCCCCC(=O)O)c2ccc(F)cc2)c1O (stereo not drawn) [Compound 17]
- inhibition in vivo at 1.25 mg/kg [3, 6]: 71%

- IC50 [2]: 160 nM
SMILES: Cc1c(C)c(Cc2ccccc2)c(C)c(C(CCCCCC(=O)O)c2ccc(F)cc2)c1O (stereo not drawn) [Compound 19]

- IC50 [2]: 160 nM
- inhibition at 10 µM [4, 5]: 100%
- inhibition at 1 µM [4, 5]: 45%
SMILES: Cc1c(C)c2c(c(C(CCCCCC(=O)O)c3ccc(F)cc3)c1O)CCC2 (stereo not drawn) [Compound 22]
- inhibition in vivo at 1.25 mg/kg [3, 6]: 43%
- inhibition in vivo at 5 mg/kg ([3]; po, 1 hour before U-46619): 83%

- inhibition at 10 µM (5-Lipoxygenase): 100%
- inhibition at 1 µM (5-Lipoxygenase): 90%
- inhibition at 0.1 µM (5-Lipoxygenase): 27%
SMILES: Cc1cc(O)c(O)c(C(CCCCCC(=O)O)c2ccc(F)cc2)c1C (stereo not drawn) [Compound 57, 7-(4-fluorophenyl)-7-(2,3-dihydroxy-5,6-dimethylphenyl)heptanoic acid]
